Several values for one entry are separate records, joined by “and”; a condition that tells them apart may be missing. Identical values can stand only once. Like-named read-outs stand apart in the source and are kept apart here.
Key:
[1] = in vitro; conditions: human, Cell viability(%), HBV 1.2x adr, 10 μM, 6 days
[2] = tested on: HBV pgRNA promoter, HBV sRNA promoter; experiment: Promoter analysis in HepG2 cells transfected with pGL3/HBV pgRNA promoter or pGL3/HBV sRNA promoter; type: cell-based, Hepatitis B virus; conditions: ETV
From the text: (§1) a Schematic depiction of the R1, R2, and R3 regions of the HBV genome that were targeted by
(§2) quantitative RT-PCR to quantitate the transcription of pgRNA, two HBV surface RNAs, and HBx RNA.
(§3) pGL3/HBV pgRNA promoter or pGL3/HBV sRNA promoter. The data shown in (b – d) represent two

[3] = tested on: HBV (pHBV1.2× adr) in transfected HepG2 cells; experiment: microbe, parasite or virus in culture; type: cell-based, Hepatitis B virus; conditions: 10 μM, 6 days
[4] = tested on: HepG2 cells transfected with pHBV1.2×; conditions: HBV 1.2x adr, 10 μM, 6 days, Sample1-3
[5] = tested on: HBsAg in HepG2.2.15 cells; experiment: Secreted HBsAg ELISA, HepG2.2.15 cells; type: cell-based, Hepatitis B virus; conditions: 6 days
Protocol: (§4) Secreted HBsAg (f, i respectively) was quantified by ELISA.
(§5) An HBsAg ELISA kit (KA0286, Abnova) was used to quantify HBsAg protein. Briefly, culture media were incubated in individual wells of the capture plates for 2 h. After washing, horseradish peroxidase-labeled rabbit anti-HBV surface antibody was added, followed by incubation for an additional 2 h. The substrate solution was added for 15–60 min and absorbance at 450 nm was measured.

[6] = in vitro; conditions: human, Cell viability(%), HepG2.2.15, 10 μM, 6 days
[7] = tested on: HBsAg in HepG2 cells transfected with pHBV1.2×; experiment: Secreted HBsAg ELISA, HepG2 cells transfected with pHBV1.2×; type: cell-based, Hepatitis B virus; conditions: 10 μM, 6 days
Protocol: as §4, §5

[8] = tested on: HBV (ayw subtype, genotype D) replicon in HepG2.2.15 cells; experiment: microbe, parasite or virus in culture; type: cell-based, Hepatitis B virus; conditions: for activity at 10 µM: Hepatitis B virus, HepG2.2.15, 144 h, 6 days
[9] = tested on: HBV transcripts in HepG2 cells transfected with pHBV1.2×; experiment: HBV transcription in HepG2 cells transfected with pHBV1.2×, quantitative RT-PCR; type: cell-based, Hepatitis B virus; conditions: Suppl. fig. 12c, ETV, Control = 1
Protocol: Quantitative RT-PCR with primers that detect three HBV regions (R1, R2, and R3, Supplementary Table 1) was used to measure HBV transcription. This RT-PCR detects pgRNA and precore RNA (3.5 kB), two HBV surface-encoding RNAs (2.5 kB and 2.1 kB), and HBx-encoding RNA (0.7 kB)[55]. PCR conditions were 95 °C for 10 min initially, then 50 cycles of 95 °C for 30 s, 60 °C for 60 s and 72 °C for 30 s, and finally 1 cycle of 95 °C for 60 s, 55 °C for 30 s and 95 °C for 30 s. […]
a Schematic depiction of the R1, R2, and R3 regions of the HBV genome that were targeted by quantitative RT-PCR to quantitate the transcription of pgRNA, two HBV surface RNAs, and HBx RNA. […]
c Region 3 transcription in ciclopirox-treated (b) HepG2.2.15 cells and (c) HepG2 cells transfected with the pHBV1.2× plasmid. d The promoter analysis of ciclopirox-treated HepG2 cells transfected with pGL3/HBV pgRNA promoter or pGL3/HBV sRNA promoter. The data shown in (b – d) represent two

[10] = tested on: HBV (pHBV1.2× adr) in transfected HepG2 cells; experiment: microbe, parasite or virus in culture; type: cell-based, Hepatitis B virus; conditions: 10 μM, 6 days; remark: listed apart in the source
[11] = tested on: HBV pgRNA/precore RNA in HepG2.2.15 cells; type: cell-based, Hepatitis B virus
Protocol: Fig. 1 Effect of FDA-approved compounds on HBV replication. a Schematic depiction of the primary screening analysis. HepG2.2.15 cells, which were stably transfected with HBV replicons, were treated with 978 FDA-approved drugs (1 μM) for 3 days. Entecavir (ETV) (1 μM) served as positive control. […] Quantitative RT-PCR was performed after 6 days of incubation. d Effect of the 19 candidates on intracellular HBV capsid assembly. Huh-7 cells were transfected with pCDNA3-Core and exposed after 12 h to the 19 candidates (1 μM) for 36 h. The cells were lysed and assembled HBV core particles were isolated by sucrose step gradient ultracentrifugation, resolved on 1% agarose gels, and subjected to immunoblot analysis with anti-HBV core antibody.
Quantitative RT-PCR with primers that detect three HBV regions (R1, R2, and R3, Supplementary Table 1) was used to measure HBV transcription. This RT-PCR detects pgRNA and precore RNA (3.5 kB), two HBV surface-encoding RNAs (2.5 kB and 2.1 kB), and HBx-encoding RNA (0.7 kB)[55]. PCR conditions were 95 °C for 10 min initially, then 50 cycles of 95 °C for 30 s, 60 °C for 60 s and 72 °C for 30 s, and finally 1 cycle of 95 °C for 60 s, 55 °C for 30 s and 95 °C for 30 s.
as §1, §2, §3

**Q.** With `C=C1[C@H](CO)[C@@H](O)C[C@@H]1n1cnc2c(=O)[nH]c(N)nc21` [ETV, entecavir] as the compound, how does the viability at 10 µM ([1]; AVERAGE) read?
**A.** 99.6%

**Q.** What about the viability at 10 µM ([1]; individual samples, Sample1-3) of the same compound?
**A.** 99.3%

**Q.** And the “Relative pgRNA promoter activity, AVERAGE” value ([2]; pgRNA promoter, Control = 1)?
**A.** 1.039

**Q.** What about the “Relative pgRNA promoter activity, Sample1-3” value ([2]; pgRNA promoter, single samples) of the same compound?
**A.** 0.9019 and 1.084 and 1.13

**Q.** And the “Relative sRNA promoter activity, AVERAGE” value ([2]; sRNA promoter, Control = 1)?
**A.** 1.037

**Q.** And the “Relative sRNA promoter activity, Sample1-3” value ([2]; sRNA promoter, single samples)?
**A.** 0.9017 and 1.283 and 0.9275

**Q.** What about the “Relative secreted HBV DNA level (Folds), AVERAGE” value ([3]; HBV 1.2x adr (figure 4g)) of the same compound?
**A.** 0.03628 Folds

**Q.** What about the “Relative secreted HBV DNA level (Folds), individual samples” value ([3]; HBV 1.2x adr) of the same compound?
**A.** 0.356 Folds and 6.706e-5 Folds and 0.0005754 Folds

**Q.** And the “Cell viability(%), individual samples” value [4]?
**A.** 100.151% and 99.4005%

**Q.** What about the “Relative secreted HBsAg (Folds), AVERAGE” value ([5]; HepG2.2.15 (figure 4f), 10 μM) of the same compound?
**A.** 0.9837 Folds

**Q.** What about the “Relative secreted HBsAg (Folds), individual samples” value ([5]; HepG2.2.15, 10 μM, Sample1-2) of the same compound?
**A.** 0.9818 Folds and 0.9857 Folds

**Q.** What about the viability at 10 µM ([6]; AVERAGE) of the same compound?
**A.** 101%

**Q.** What about the viability at 10 µM ([6]; individual samples, Sample1-3) of the same compound?
**A.** 101%

**Q.** And the “Relative secreted HBsAg (Folds), AVERAGE” value ([7]; HBV 1.2x adr (figure 4i))?
**A.** 0.996 Folds

**Q.** What about the “Relative secreted HBsAg (Folds), individual samples” value ([7]; HBV 1.2x adr, Sample1-2) of the same compound?
**A.** 1.007 Folds and 0.9855 Folds

**Q.** What about the “HBV DNA particle secretion was reduced by” value ([8]; 1 μM, 3 days' incubation) of the same compound?
**A.** 42.1 ± 14.1%

**Q.** What about the activity at 10 µM ([8]; HepG2.2.15 (figure 4d), 10 μM, read-out: Relative secreted HBV DNA level (Folds), AVERAGE) of the same compound?
**A.** 1.36%

**Q.** What about the activity at 10 µM ([8]; HepG2.2.15, 10 μM, read-out: Relative secreted HBV DNA level (Folds), individual samples) of the same compound?
**A.** 1.96%

**Q.** And the “Relative HBV transcript R1, Sample1-3” value ([9]; R1, single samples)?
**A.** 0.9971 and 1.095 and 1.085

**Q.** And the “Relative HBV transcript R2, AVERAGE” value ([9]; R2)?
**A.** 1.083

**Q.** What about the “Relative HBV transcript R3, AVERAGE” value ([9]; R3) of the same compound?
**A.** 0.953

**Q.** What about the “Relative HBV transcript R3, Sample1-3” value ([9]; R3, single samples) of the same compound?
**A.** 0.9903 and 0.9758 and 0.8935

**Q.** And the “Relative intracellular HBV DNA level (Folds), AVERAGE” value ([10]; HBV 1.2x adr (figure 4h))?
**A.** 0.1393 Folds

**Q.** And the “Relative intracellular HBV DNA level (Folds), individual samples” value ([10]; HBV 1.2x adr, Sample1-3)?
**A.** 0.1084 Folds and 0.1053 Folds and 0.1147 Folds

**Q.** What about the “Relative HBV pgRNA/precore RNA level (Folds), AVERAGE” value ([11]; Fig. 1c, 6 days) of the same compound?
**A.** 0.9573 Folds

**Q.** What about the “Relative HBV transcript R1, Sample1-3” value ([11]; Suppl. fig. 12b, R1, single samples, ETV, Control = 1) of the same compound?
**A.** 0.9164 and 1.011 and 1.015

**Q.** And the “Relative HBV transcript R2, AVERAGE” value ([11]; Suppl. fig. 12b, R2, ETV, Control = 1)?
**A.** 1.028

**Q.** What about the “Relative HBV transcript R3, AVERAGE” value ([11]; Suppl. fig. 12b, R3, ETV, Control = 1) of the same compound?
**A.** 0.9829

**Q.** What about the “Relative HBV transcript R3, Sample1-3” value ([11]; Suppl. fig. 12b, R3, single samples, ETV, Control = 1) of the same compound?
**A.** 0.9794 and 0.8641 and 0.8947
